ChEMBL document CHEMBL1146806, “Halothiophene benzimidazoles as P1 surrogates of inhibitors of blood coagulation factor Xa” (Bioorg Med Chem Lett, 2004)

Columns and labels:
[1] = Oral bioavailability in rat; format: ADME, organism-based; settings: in vivo
Prothrombin = Prothrombin (Homo sapiens, UniProt P00734); assay: Binding affinity against human thrombin.
[2] = Oral bioavailability in dog; format: ADME, organism-based, Canis lupus familiaris; settings: in vivo
[3] = Solubility in pH 7.0 phosphate buffer; format: physicochemical
Coagulation factor X = Coagulation factor X (Homo sapiens, UniProt P00742); assay: Binding affinity of the compoumd to human coagulation factor Xa
Coagulation factor X, sequence (P00742 41-179 limits assumed): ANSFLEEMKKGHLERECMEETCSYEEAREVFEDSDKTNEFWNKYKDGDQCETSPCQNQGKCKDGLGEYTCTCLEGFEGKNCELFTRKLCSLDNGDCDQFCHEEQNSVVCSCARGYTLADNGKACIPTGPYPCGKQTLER
Coagulation factor X, sequence (P00742 235-488 limits assumed): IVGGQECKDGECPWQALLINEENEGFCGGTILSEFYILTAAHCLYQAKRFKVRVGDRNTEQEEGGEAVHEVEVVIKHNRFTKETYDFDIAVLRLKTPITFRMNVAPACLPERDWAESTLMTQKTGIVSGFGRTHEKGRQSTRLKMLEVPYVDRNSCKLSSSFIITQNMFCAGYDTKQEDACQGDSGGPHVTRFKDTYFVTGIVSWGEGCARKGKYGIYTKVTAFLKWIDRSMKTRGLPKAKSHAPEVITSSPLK

Trypsin = Trypsin (Homo sapiens, UniProt P07477+P07478+P35030); assay: Binding affinity against human trypsin; format: protein assay
Serine protease 1 = Serine protease 1 (Homo sapiens, UniProt P07477); assay: Binding affinity of the compoumd against human trypsin was determined
Serine protease 1, sequence (P07477 whole entry): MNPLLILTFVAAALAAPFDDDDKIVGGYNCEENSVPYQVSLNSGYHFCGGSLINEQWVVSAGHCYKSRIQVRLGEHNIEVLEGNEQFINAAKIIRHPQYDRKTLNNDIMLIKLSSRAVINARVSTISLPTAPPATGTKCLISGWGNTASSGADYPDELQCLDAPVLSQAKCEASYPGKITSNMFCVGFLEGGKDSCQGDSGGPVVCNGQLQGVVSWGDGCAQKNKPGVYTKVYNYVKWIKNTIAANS

| SMILES | bioavailability [1] [%] | IC50 (Prothrombin) [µM] | bioavailability [2] [%] | solubility [3] [µg/mL] | IC50 (Coagulation factor X) [µM] | IC50 (Trypsin) [µM] | IC50 (Serine protease 1) [µM] |
| --- | --- | --- | --- | --- | --- | --- | --- |
| O=C(Cc1ccc2[nH]c(-c3ccc(Br)s3)nc2c1)Nc1ccc(-n2ccccc2=O)cc1 | < 20 | > 10 | < 20 | < 10 | 0.063 | > 10 |  |
| O=C(CCc1ccc2[nH]c(-c3ccc(Cl)s3)nc2c1)Nc1ccc(N2CCOCC2=O)c(Cl)c1 | < 20 | > 10 | < 20 | < 10 | 0.007 |  | > 10 |
| CC1CC(=O)NN=C1c1ccc2[nH]c(-c3ccc(Br)s3)nc2c1 (centres undefined) | < 20 | > 10 | < 20 | < 10 | 0.98 |  | > 10 |
| O=C(Cc1ccc2[nH]c(-c3ccc(Cl)s3)nc2c1)Nc1ccc(N2CCCC2=O)cc1 | < 20 | > 10 | < 20 | < 10 | 0.53 | > 10 |  |
| Cc1cc(NC(=O)COc2ccc3[nH]c(-c4ccc(Cl)s4)nc3c2)ccc1N1CCOCC1=O | < 20 | > 10 | < 20 | < 10 | 0.02 | > 10 |  |
| O=C(CCc1ccc2nc(-c3ccc(Br)s3)[nH]c2c1)NCC1CCN(c2ccncc2)CC1 | < 20 |  | < 20 | < 10 | 0.058 |  |  |
| O=C(CCc1ccc2nc(-c3ccc(Cl)s3)[nH]c2c1)Nc1ccc(N2CCOCC2=O)cc1F | < 20 | > 10 | < 20 | < 10 |  |  | > 10 |
| O=C(Cc1ccc2[nH]c(-c3ccc(Cl)s3)nc2c1)Nc1ccc(N2CCCCC2=O)cc1 | < 20 | > 10 | < 20 | < 10 | 0.26 | > 10 |  |
| Cc1cc(NC(=O)CCc2ccc3[nH]c(-c4ccc(Cl)s4)nc3c2)ccc1N1CCOCC1=O | < 20 | > 10 | < 20 | < 10 | 0.0082 | > 10 |  |
| CCC[C@@H](NC(=O)Nc1ccc(Cl)cc1)C(=O)Nc1ccc(N2CCOCC2=O)cc1 | < 20 | > 10 | < 20 | < 10 |  |  | > 10 |
| O=C(NCc1ccc2[nH]c(-c3ccc(Cl)s3)nc2c1)c1ccc(N2CCOCC2=O)cc1 | < 20 | > 10 | < 20 | < 10 | 0.44 | > 10 |  |
| O=C(Cc1ccc2[nH]c(-c3ccc(Cl)s3)nc2c1)NCc1ccc(N2CCOCC2=O)cc1 | < 20 |  | < 20 | < 10 | 0.17 |  |  |
| O=C(CCc1ccc2[nH]c(-c3ccc(Cl)s3)nc2c1)Nc1ccc(-n2ccccc2=O)c(F)c1 | < 20 | > 10 | < 20 | < 10 | 0.0076 |  | > 10 |
| Cc1cc(NC(=O)Cc2ccc3[nH]c(-c4ccc(Cl)s4)nc3c2)ccc1N1CCOCC1=O | < 20 |  | < 20 | < 10 |  |  |  |
| O=C(CNC(=O)Nc1ccc(Cl)cc1)Nc1ccc(N2CCOCC2=O)cc1 | < 20 | > 10 | < 20 | < 10 | 0.032 |  | > 10 |
| O=C(Cc1ccc2[nH]c(-c3ccc(Cl)s3)nc2c1)Nc1ccc(N2CCOCC2=O)cc1 | < 20 | > 10 | < 20 | < 10 |  | > 10 |  |
| N=C(N)c1cccc(N[C@H](C(=O)Nc2ccc(N3CCCCC3=O)cc2)c2ccccc2)c1 | < 20 |  | < 20 | < 10 | 0.015 |  |  |
| O=C(CCc1ccc2[nH]c(-c3ccc(Cl)s3)nc2c1)Nc1ccc(N2CCOCC2=O)cc1 | < 20 |  | < 20 | < 10 |  |  |  |
| O=C(Cc1ccc2[nH]c(-c3ccc(Cl)s3)nc2c1)NCC1CCN(c2ccncc2)CC1 | < 20 | > 10 | < 20 | < 10 | 0.014 | > 10 |  |
| O=C(COc1ccc2[nH]c(-c3ccc(Cl)s3)nc2c1)Nc1ccc(N2CCOCC2=O)cc1 | < 20 |  | < 20 | < 10 | 0.15 |  |  |
| Cc1cc(NC(=O)Cc2ccc3[nH]c(-c4ccc(Cl)s4)nc3c2)ccc1-n1ccccc1=O | < 20 |  | < 20 | < 10 | 0.18 |  |  |
| Cc1cc(NC(=O)Cc2ccc3[nH]c(-c4ccc(Br)s4)nc3c2)ccc1N1CCOCC1=O | < 20 |  | < 20 | < 10 | 0.041 |  |  |
| O=C(Nc1ccc(N2CCOCC2=O)cc1)c1ccc2[nH]c(-c3ccc(Cl)s3)nc2c1 | < 20 | > 10 | < 20 | < 10 |  | > 10 |  |
| CS(=O)(=O)c1ccccc1-c1ccc(NC(=O)Cc2ccc3[nH]c(-c4ccc(Cl)s4)nc3c2)cc1 | < 20 | > 10 | < 20 | < 10 |  | > 10 |  |
| CC1CC(=O)NN=C1c1ccc2[nH]c(-c3ccc(Cl)s3)nc2c1 (centres undefined) | < 20 | > 10 | < 20 | < 10 |  | > 10 |  |
| O=C(Cc1ccc2[nH]c(-c3ccc(Br)s3)nc2c1)NCC1CCN(c2ccncc2)CC1 | < 20 | > 10 | < 20 | < 10 | 0.0052 | > 10 |  |
| O=C(Cc1ccc(N2CCOCC2=O)cc1)Nc1ccc2[nH]c(-c3ccc(Cl)s3)nc2c1 | < 20 | > 10 | < 20 | < 10 | 1.2 | > 10 |  |
| Cc1cc(NC(=O)CCc2ccc3[nH]c(-c4ccc(Br)s4)nc3c2)ccc1N1CCOCC1=O | < 20 | > 10 | < 20 | < 10 | 0.0084 | > 10 |  |
